Assay results as given in PMC10057847, “Precision engineering of biological function with large-scale measurements and machine learning” (PLOS ONE, 2023).

Columns and labels:
Assay in all cases: In vivo IPTG dose-response of LacI-regulated eYFP expression from the pVER plasmid in E. coli grown in rich M9 medium at 37 °C, measured by flow cytometry and fitted to the Hill equation by Bayesian MCMC (posterior mean and SD).
Type in all cases: cell-based, E. coli MG1655Δlac
Details in all cases: read-out: log_ec50 (base-10 logarithm of EC50 in μmol/L) (converted)
pVER-IPTG-002 = target: T1, pVER-IPTG-002 (Escherichia coli, UniProt P03023, M254I/S158R/T154I/V238D/V264I/V96E)
T1 construct: gene lacI; LacI expressed from pVER plasmid
Experimental: (§1) All reported measurements were completed using E. coli strain MG1655Δlac, in which the lactose operon of E. coli strain MG1655 (ATCC #47076) was replaced with the bleomycin resistance gene from Streptoalloteichus hindustanus (Shble).
(§2) Dose-response curves were measured with flow cytometry using E. coli MG1655Δlac transformed with variants of the pVER plasmid, described previously. The plasmid contained different variants of the lacI coding DNA sequence (CDS), as described in the text, and an expression cassette with enhanced yellow fluorescent protein (eYFP) under the control of the lactose operator (lacO). The lacI CDS was verified with Sanger sequencing for each variant.
(§3) All cultures were grown in a rich M9 media (3 g/L KH2PO4, 6.78 g/L Na2HPO4, 0.5 g/L NaCl, 1 g/L NH4Cl, 0.1 mmol/L CaCl2, 2 mmol/L MgSO4, 4% glycerol, and 20 g/L casamino acids) supplemented with 50 μg/mL kanamycin.
(§4) • Prepare first growth plate, with 450 μL rich M9 media in each well. • Pipette 50 μL of starter culture into each well in rows B-G of the plate (leaving rows A and H blank). • Use a E. coli containing a different lacI variant for each row. • Seal first growth plate with gas permeable membrane. • Incubate plate in plate reader for 12 h to 14 h. • Grow to stationary to provide a reproducible starting point for each measurement. • Prepare second growth plate with 490 μL in each well. • Dilution series of isopropyl-β-D-thiogalactopyranoside (IPTG): 11 columns of a 2-fold serial dilution gradient and one column with zero IPTG. • Ten minutes before the end of the incubation cycle for the first growth plate, move the second growth plate to a heated station set to 47°C. • Ten minutes at 47°C will pre-warm the media in the plate to 37°C. • De-seal the first growth plate (after completion of the stationary-phase incubation cycle). • Pipette 10 μL from each well in the first growth plate to the corresponding well in the second growth plate. • 50-fold dilution; using a 96-channel pipetting head. • Seal second growth plate with gas permeable membrane. • Incubate second growth plate in plate reader for 160 minutes. • Sufficient for approximately 10-fold increase in cell density or 3.3 doublings. • Prepare third growth plate with 450 μL in each well. • Same dilution series as in second growth plate. • Ten minutes before the end of the incubation cycle for the second growth plate, move the third growth plate to a heated station set to 47°C. • De-seal the second growth plate (after completion of the 160 minute incubation cycle). • Pipette 50 μL from each well in the second growth plate to the corresponding well in the third growth plate. • 10-fold dilution; using a 96-channel pipetting head. • Seal third growth plate with gas permeable membrane. • Incubate third growth plate in plate reader for 160 minutes. • Prepare flow cytometry sample plate (round-bottom 96-well plate, Falcon, 351177). • Each well in rows B-G: 195 μL 1x PBS with 170 μg/mL chloramphenicol (Fisher BioReagents, cat. #BP904-100). • Rows A and H: PBS blanks, focusing fluid blanks, and space for calibration bead sample • At the end of the incubation cycle for the third growth plate, pipette 5 μL from each well to the corresponding well in the flow cytometry sample plate.
(§5) Flow cytometry samples were measured with an Attune NxT flow cytometer equipped with a 96-well plate autosampler using a 488 nm excitation laser and a 530 nm ± 15 nm bandpass emission filter. Blank samples were measured with each batch of cell measurements, and an automated gating algorithm was used to discriminate cell events from non-cell events. Fluorescence calibration beads (Spherotech, part no. RCP-30-20A) were also measured with each batch of samples to facilitate calibration of flow cytometry data to molecules of equivalent fluorescein (MEF). […]

pVER-IPTG-002(V136E) = target: T2, pVER-IPTG-002(V136E) (Escherichia coli, UniProt P03023, M254I/S158R/T154I/V136E/V238D/V264I/V96E)
T2 construct: gene lacI; LacI expressed from pVER plasmid
Experimental: as §1, §2, §3, §4, §5

pVER-IPTG-002(V80L) = target: T3, pVER-IPTG-002(V80L) (Escherichia coli, UniProt P03023, M254I/S158R/T154I/V238D/V264I/V80L/V96E)
T3 construct: gene lacI; LacI expressed from pVER plasmid
Experimental: as §1, §2, §3, §4, §5

pVER-IPTG-003 = target: T4, pVER-IPTG-003 (Escherichia coli, UniProt P03023, A337V/G200V/H74Y/K290R/L262M/Q306H/R207H/V119I/V52M)
T4 construct: gene lacI; LacI expressed from pVER plasmid; stop codon at 352
Experimental: as §1, §2, §3, §4, §5

pVER-IPTG-004(S70R) = target: T5, pVER-IPTG-004(S70R) (Escherichia coli, UniProt P03023, A87P/E357G/S70R/V301M)
T5 construct: gene lacI; LacI expressed from pVER plasmid
Experimental: as §1, §2, §3, §4, §5

pVER-IPTG-004(V80L) = target: T6, pVER-IPTG-004(V80L) (Escherichia coli, UniProt P03023, A87P/E357G/V301M/V80L)
T6 construct: gene lacI; LacI expressed from pVER plasmid
Experimental: as §1, §2, §3, §4, §5

pVER-IPTG-005 = target: T7, pVER-IPTG-005 (Escherichia coli, UniProt P03023, A176S/E172D/F226Y/G91D/R101G/S158C/T167M/T276S/T299A/V94A)
T7 construct: gene lacI; LacI expressed from pVER plasmid
Experimental: as §1, §2, §3, §4, §5

pVER-IPTG-006 = target: T8, pVER-IPTG-006 (Escherichia coli, UniProt P03023, A241V/A341T/D88Y/L305M/L319F/L346S/N246S/P339T)
T8 construct: gene lacI; LacI expressed from pVER plasmid
Experimental: as §1, §2, §3, §4, §5

pVER-IPTG-009 = target: T9, pVER-IPTG-009 (Escherichia coli, UniProt P03023, I210L/I283N/M254T/N157D/P76Q/Q181H/V150A)
T9 construct: gene lacI; LacI expressed from pVER plasmid
Experimental: as §1, §2, §3, §4, §5

pVER-IPTG-076 = target: T10, pVER-IPTG-076 (Escherichia coli, UniProt P03023, A337S/L198Q/S102R/S260F/S93N/V99E)
T10 construct: gene lacI; LacI expressed from pVER plasmid
Experimental: as §1, §2, §3, §4, §5

pVER-IPTG-077 = target: T11, pVER-IPTG-077 (Escherichia coli, UniProt P03023, A222T/D152E/I64V/K327N/L295M/N208I/Q131R/T141A/V95M)
T11 construct: gene lacI; LacI expressed from pVER plasmid
Experimental: as §1, §2, §3, §4, §5

T1 sequence (P03023 whole entry V96E/T154I/S158R/V238D/M254I/V264I): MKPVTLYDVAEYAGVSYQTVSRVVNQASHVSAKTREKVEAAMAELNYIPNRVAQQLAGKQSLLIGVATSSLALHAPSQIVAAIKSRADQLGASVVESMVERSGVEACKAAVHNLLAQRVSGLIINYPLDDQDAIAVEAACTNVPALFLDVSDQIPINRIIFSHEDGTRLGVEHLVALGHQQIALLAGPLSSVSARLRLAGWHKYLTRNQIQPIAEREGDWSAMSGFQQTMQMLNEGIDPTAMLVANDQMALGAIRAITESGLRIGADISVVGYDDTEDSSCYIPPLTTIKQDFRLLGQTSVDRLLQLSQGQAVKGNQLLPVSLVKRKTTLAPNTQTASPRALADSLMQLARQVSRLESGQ
T6 sequence (P03023 whole entry V80L/A87P/V301M/E357G): as the sequence (P03023 whole entry V96E/T154I/S158R/V238D/M254I/V264I) above, with V80L, A87P, E96V, I154T, R158S, D238V, I254M, I264V, V301M, E357G counted along it
T4 sequence (P03023 1-351 V52M/H74Y/V119I/G200V/R207H/L262M/K290R/Q306H/A337V): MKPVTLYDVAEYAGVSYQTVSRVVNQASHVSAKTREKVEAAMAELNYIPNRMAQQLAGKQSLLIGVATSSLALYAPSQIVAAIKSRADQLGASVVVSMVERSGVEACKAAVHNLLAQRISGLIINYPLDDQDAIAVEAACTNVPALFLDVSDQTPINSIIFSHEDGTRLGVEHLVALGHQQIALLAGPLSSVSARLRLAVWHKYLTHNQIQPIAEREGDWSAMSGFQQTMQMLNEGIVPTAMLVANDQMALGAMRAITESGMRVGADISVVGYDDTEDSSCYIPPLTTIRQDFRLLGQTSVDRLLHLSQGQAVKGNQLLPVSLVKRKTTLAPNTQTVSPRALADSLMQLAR
T9 sequence (P03023 whole entry P76Q/V150A/N157D/Q181H/I210L/M254T/I283N): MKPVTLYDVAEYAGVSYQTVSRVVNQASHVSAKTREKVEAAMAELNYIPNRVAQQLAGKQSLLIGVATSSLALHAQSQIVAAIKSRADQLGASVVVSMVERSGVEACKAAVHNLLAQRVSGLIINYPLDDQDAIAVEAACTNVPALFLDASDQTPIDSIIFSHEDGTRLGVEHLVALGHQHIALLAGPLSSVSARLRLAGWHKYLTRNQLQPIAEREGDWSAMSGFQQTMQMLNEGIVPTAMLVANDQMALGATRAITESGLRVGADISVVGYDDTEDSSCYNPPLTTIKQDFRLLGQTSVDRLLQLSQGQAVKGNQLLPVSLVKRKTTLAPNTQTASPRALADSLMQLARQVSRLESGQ
T11 sequence (P03023 whole entry I64V/V95M/Q131R/T141A/D152E/N208I/A222T/L295M/K327N): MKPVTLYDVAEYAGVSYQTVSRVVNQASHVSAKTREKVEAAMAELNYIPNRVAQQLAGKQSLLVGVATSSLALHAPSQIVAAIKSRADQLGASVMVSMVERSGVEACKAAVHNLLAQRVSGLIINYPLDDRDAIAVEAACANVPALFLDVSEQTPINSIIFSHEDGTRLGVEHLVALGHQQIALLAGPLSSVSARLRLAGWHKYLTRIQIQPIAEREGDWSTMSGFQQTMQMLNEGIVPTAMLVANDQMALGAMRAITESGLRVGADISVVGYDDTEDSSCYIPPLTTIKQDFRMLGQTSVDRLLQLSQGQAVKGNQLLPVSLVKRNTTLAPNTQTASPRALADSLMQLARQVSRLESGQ
T8 sequence (P03023 whole entry D88Y/A241V/N246S/L305M/L319F/P339T/A341T/L346S): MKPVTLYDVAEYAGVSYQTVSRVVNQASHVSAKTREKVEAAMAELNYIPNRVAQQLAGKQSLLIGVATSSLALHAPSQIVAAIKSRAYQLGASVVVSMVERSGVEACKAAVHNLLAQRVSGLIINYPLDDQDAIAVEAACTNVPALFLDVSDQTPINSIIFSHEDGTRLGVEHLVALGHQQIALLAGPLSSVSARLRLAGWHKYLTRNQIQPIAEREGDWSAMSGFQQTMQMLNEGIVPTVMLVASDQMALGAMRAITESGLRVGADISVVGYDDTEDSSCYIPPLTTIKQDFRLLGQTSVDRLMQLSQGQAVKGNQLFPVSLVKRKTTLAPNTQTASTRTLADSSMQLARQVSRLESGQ
T7 sequence (P03023 whole entry G91D/V94A/R101G/S158C/T167M/E172D/A176S/F226Y/T276S/T299A): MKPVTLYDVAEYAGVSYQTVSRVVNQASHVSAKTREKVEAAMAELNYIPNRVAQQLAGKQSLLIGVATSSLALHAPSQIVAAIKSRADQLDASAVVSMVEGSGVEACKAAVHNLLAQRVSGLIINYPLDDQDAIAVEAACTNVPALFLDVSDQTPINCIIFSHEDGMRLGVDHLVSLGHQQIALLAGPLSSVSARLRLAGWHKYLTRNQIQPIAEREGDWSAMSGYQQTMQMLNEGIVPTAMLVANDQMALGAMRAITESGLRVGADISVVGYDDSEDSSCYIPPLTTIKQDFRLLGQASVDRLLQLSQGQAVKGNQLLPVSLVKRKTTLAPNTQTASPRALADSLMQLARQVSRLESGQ
T10 sequence (P03023 whole entry S93N/V99E/S102R/L198Q/S260F/A337S): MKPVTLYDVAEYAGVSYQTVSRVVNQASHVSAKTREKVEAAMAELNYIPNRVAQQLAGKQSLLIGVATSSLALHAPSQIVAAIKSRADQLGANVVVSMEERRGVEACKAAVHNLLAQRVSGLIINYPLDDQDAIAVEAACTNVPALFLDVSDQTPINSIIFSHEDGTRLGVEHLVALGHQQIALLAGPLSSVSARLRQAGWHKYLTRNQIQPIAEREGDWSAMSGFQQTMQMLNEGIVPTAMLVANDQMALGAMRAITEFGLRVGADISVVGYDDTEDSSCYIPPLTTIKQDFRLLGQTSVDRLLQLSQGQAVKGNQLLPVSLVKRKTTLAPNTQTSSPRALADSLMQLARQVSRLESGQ
T2 sequence (P03023 whole entry V96E/V136E/T154I/S158R/V238D/M254I/V264I): as the sequence (P03023 whole entry V96E/T154I/S158R/V238D/M254I/V264I) above, with V136E counted along it
T3 sequence (P03023 whole entry V80L/V96E/T154I/S158R/V238D/M254I/V264I): as the sequence (P03023 whole entry V96E/T154I/S158R/V238D/M254I/V264I) above, with V80L counted along it
T5 sequence (P03023 whole entry S70R/A87P/V301M/E357G): as the sequence (P03023 whole entry S93N/V99E/S102R/L198Q/S260F/A337S) above, with S70R, A87P, N93S, E99V, R102S, Q198L, F260S, V301M, S337A, E357G counted along it

CC(C)S[C@@H]1O[C@H](CO)[C@H](O)[C@H](O)[C@H]1O [IPTG, isopropyl-β-D-thiogalactopyranoside]
EC50 (pVER-IPTG-002): 233 µmol/L
EC50 (pVER-IPTG-002(V136E)): 464000 µmol/L
EC50 (pVER-IPTG-002(V80L)): 47.7 µmol/L
EC50 (pVER-IPTG-003): 162 µmol/L
EC50 (pVER-IPTG-004(S70R)): 3890 µmol/L
EC50 (pVER-IPTG-004(V80L)): 36.8 µmol/L
EC50 (pVER-IPTG-005): 203 µmol/L
EC50 (pVER-IPTG-006): 540 µmol/L
EC50 (pVER-IPTG-009): 169 µmol/L
EC50 (pVER-IPTG-076): 4.31 µmol/L
EC50 (pVER-IPTG-077): 2.95 µmol/L
